Reference: patent US20090018111A1, “Novel Antimicrobial Medicament” (priority 2004, published 2009)
Where two headings read alike, the source gives them in different places.

Tests used:
Assay in all cases: Sensitivity test (agar dilution)
E. faecalis ATCC19433 = format: cell-based, Enterococcus faecalis; conditions: Enterococcus faecalis, E. faecalis ATCC19433
Method in brief: (§1)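 MICs were determined by agar dilution on Mueller Hinton agar containing twofold serial dilutions of single drugs or drug combinations. Overnight 37° C cultures were suspended in gelatin-buffered saline at about 10^6 CFU/ml, and about 5 μl was spot-inoculated. FIC index was calculated from MICs; ≤1 denotes enhancement.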

M. catarrhalis ATCC8176 = format: cell-based, Moraxella catarrhalis; conditions: Moraxella catarrhalis, M. catarrhalis ATCC8176
Method in brief: as §1

M. catarrhalis ATCC25238 = format: cell-based, Moraxella catarrhalis; conditions: Moraxella catarrhalis, M. catarrhalis ATCC25238
Method in brief: as §1

M. luteus ATCC9341 = format: cell-based, Micrococcus luteus; conditions: Micrococcus luteus, M. luteus ATCC9341
Method in brief: as §1

B. subtilis ATCC6633 = format: cell-based, Bacillus subtilis; conditions: Bacillus subtilis, B. subtilis ATCC6633
Method in brief: as §1

S. marcescens GN6473 = format: cell-based, Serratia marcescens; conditions: Serratia marcescens, S. marcescens GN6473
Method in brief: as §1

S. marcescens X 100 = format: cell-based, Serratia marcescens; conditions: Serratia marcescens, S. marcescens X 100
Method in brief: as §1

P. mirabiris GN2425 = format: cell-based, Proteus mirabilis; conditions: Proteus mirabilis, P. mirabiris GN2425
Method in brief: as §1

S. epidermidis IAM1296 = format: cell-based, Staphylococcus epidermidis; conditions: Staphylococcus epidermidis, S. epidermidis IAM1296
Method in brief: as §1

Str. pyogenes Cook = format: cell-based, Streptococcus pyogenes; conditions: Streptococcus pyogenes, Str. pyogenes Cook
Method in brief: as §1

P. vurgalis OX-19 = format: cell-based, Proteus vulgaris; conditions: Proteus vulgaris, P. vurgalis OX-19
Method in brief: as §1

P. vulgaris GN7919 = format: cell-based, Proteus vulgaris; conditions: Proteus vulgaris, P. vulgaris GN7919
Method in brief: as §1

E. aerogenes ATCC13048 = format: cell-based, Enterobacter aerogenes; conditions: Klebsiella aerogenes, E. aerogenes ATCC13048
Method in brief: as §1

[1] = ATCC19433, drug alone, read-out: MIC alone
[2] = ATCC8176, drug alone, read-out: MIC alone
[3] = ATCC25238, drug alone, read-out: MIC alone
[4] = ATCC9341, drug alone, read-out: MIC alone
[5] = ATCC6633, drug alone, read-out: MIC alone
[6] = GN6473, drug alone, read-out: MIC alone
[7] = X100, drug alone, read-out: MIC alone
[8] = GN2425, drug alone, read-out: MIC alone
[9] = IAM1296, drug alone, read-out: MIC alone
[10] = drug alone, read-out: MIC alone
[11] = OX19, drug alone, read-out: MIC alone
[12] = GN7919, drug alone, read-out: MIC alone
[13] = ATCC13048, drug alone, read-out: MIC alone

Compound | MIC (E. faecalis ATCC19433; [1]) [µg/mL] | MIC (M. catarrhalis ATCC8176; [2]) [µg/mL] | MIC (M. catarrhalis ATCC25238; [3]) [µg/mL] | MIC (M. luteus ATCC9341; [4]) [µg/mL] | MIC (B. subtilis ATCC6633; [5]) [µg/mL] | MIC (S. marcescens GN6473; [6]) [µg/mL] | MIC (S. marcescens X 100; [7]) [µg/mL] | MIC (P. mirabiris GN2425; [8]) [µg/mL] | MIC (S. epidermidis IAM1296; [9]) [µg/mL] | MIC (Str. pyogenes Cook; [10]) [µg/mL] | MIC (P. vurgalis OX-19; [11]) [µg/mL] | MIC (P. vulgaris GN7919; [12]) [µg/mL] | MIC (E. aerogenes ATCC13048; [13]) [µg/mL] | other results
CC(C)(O/N=C(\C(=O)N[C@@H]1C(=O)N2C(C(=O)[O-])=C(C[n+]3ccccc3)CS[C@H]12)c1csc(N)n1)C(=O)O [CAZ, ceftazidime] | > 32 | 0.016 | 0.016 | 1 | 2 | 0.5 | 0.25 | 0.063 | > 32 | 0.125 | 0.031 | 0.5 | 0.5 | MIC (E. faecalis ATCC19433; ATCC19433, Concomitant (CAZ:SM = 1:1), read-out: MIC concomitant): 1 µg/mL; MIC (M. catarrhalis ATCC8176; ATCC8176, Concomitant (CAZ:SM = 1:1), read-out: MIC concomitant): ≤ 0.002 µg/mL; MIC (M. catarrhalis ATCC25238; ATCC25238, Concomitant (CAZ:SM = 1:1), read-out: MIC concomitant): ≤ 0.002 µg/mL; MIC (M. luteus ATCC9341; ATCC9341, Concomitant (CAZ:SM = 1:1), read-out: MIC concomitant): ≤ 0.002 µg/mL; MIC (B. subtilis ATCC6633; ATCC6633, Concomitant (CAZ:SM = 1:1), read-out: MIC concomitant): ≤ 0.002 µg/mL; MIC (S. marcescens GN6473; GN6473, Concomitant (CAZ:SM = 1:1), read-out: MIC concomitant): 0.5 µg/mL; MIC (S. marcescens X 100; X100, Concomitant (CAZ:SM = 1:1), read-out: MIC concomitant): 0.125 µg/mL; MIC (P. mirabiris GN2425; GN2425, Concomitant (CAZ:SM = 1:1), read-out: MIC concomitant): 0.031 µg/mL; MIC (S. epidermidis IAM1296; IAM1296, Concomitant (CAZ:SM = 1:1), read-out: MIC concomitant): 0.031 µg/mL; MIC (Str. pyogenes Cook; Concomitant (CAZ:SM = 1:1), read-out: MIC concomitant): 0.004 µg/mL; MIC (P. vurgalis OX-19; OX19, Concomitant (CAZ:SM = 1:1), read-out: MIC concomitant): 0.008 µg/mL; MIC (P. vulgaris GN7919; GN7919, Concomitant (CAZ:SM = 1:1), read-out: MIC concomitant): 0.5 µg/mL; MIC (E. aerogenes ATCC13048; ATCC13048, Concomitant (CAZ:SM = 1:1), read-out: MIC concomitant): 8 µg/mL
CC(=N)N1CC[C@H](SC2=C(C(=O)O)N3C(=O)[C@H]([C@@H](C)O)[C@H]3C2)C1 [PAPM, panipenem] | 2 | 0.008 | 0.008 | 0.031 | 0.016 | 0.5 | 0.25 | 1 | 0.5 | 0.008 | 1 | 1 | 0.5 | MIC (E. faecalis ATCC19433; ATCC19433, Concomitant (PAPM:SM = 1:1), read-out: MIC concomitant): 1 µg/mL; MIC (M. catarrhalis ATCC8176; ATCC8176, Concomitant (PAPM:SM = 1:1), read-out: MIC concomitant): ≤ 0.002 µg/mL; MIC (M. catarrhalis ATCC25238; ATCC25238, Concomitant (PAPM:SM = 1:1), read-out: MIC concomitant): ≤ 0.002 µg/mL; MIC (M. luteus ATCC9341; ATCC9341, Concomitant (PAPM:SM = 1:1), read-out: MIC concomitant): ≤ 0.002 µg/mL; MIC (B. subtilis ATCC6633; ATCC6633, Concomitant (PAPM:SM = 1:1), read-out: MIC concomitant): ≤ 0.002 µg/mL; MIC (S. marcescens GN6473; GN6473, Concomitant (PAPM:SM = 1:1), read-out: MIC concomitant): 0.25 µg/mL; MIC (S. marcescens X 100; X100, Concomitant (PAPM:SM = 1:1), read-out: MIC concomitant): 0.125 µg/mL; MIC (P. mirabiris GN2425; GN2425, Concomitant (PAPM:SM = 1:1), read-out: MIC concomitant): 0.125 µg/mL; MIC (S. epidermidis IAM1296; IAM1296, Concomitant (PAPM:SM = 1:1), read-out: MIC concomitant): 0.016 µg/mL; MIC (Str. pyogenes Cook; Concomitant (PAPM:SM = 1:1), read-out: MIC concomitant): ≤ 0.002 µg/mL; MIC (P. vurgalis OX-19; OX19, Concomitant (PAPM:SM = 1:1), read-out: MIC concomitant): 0.063 µg/mL; MIC (P. vulgaris GN7919; GN7919, Concomitant (PAPM:SM = 1:1), read-out: MIC concomitant): 0.5 µg/mL; MIC (E. aerogenes ATCC13048; ATCC13048, Concomitant (PAPM:SM = 1:1), read-out: MIC concomitant): 0.25 µg/mL
